Reference: US11008317B2, “Triazolopyridine inhibitors of myeloperoxidase and/or EPX” (priority 2016, dated 2021)

How the values were obtained:
myeloperoxidase [1] = molecular target: T1, myeloperoxidase (Homo sapiens, UniProt P05164); assay: MPO Peroxidation Assay (Amplex Red Assay); assay type: biochemical; settings: potency range class, read-out: Amplex Red Assay IC50 value
T1 sequence (P05164 49-745): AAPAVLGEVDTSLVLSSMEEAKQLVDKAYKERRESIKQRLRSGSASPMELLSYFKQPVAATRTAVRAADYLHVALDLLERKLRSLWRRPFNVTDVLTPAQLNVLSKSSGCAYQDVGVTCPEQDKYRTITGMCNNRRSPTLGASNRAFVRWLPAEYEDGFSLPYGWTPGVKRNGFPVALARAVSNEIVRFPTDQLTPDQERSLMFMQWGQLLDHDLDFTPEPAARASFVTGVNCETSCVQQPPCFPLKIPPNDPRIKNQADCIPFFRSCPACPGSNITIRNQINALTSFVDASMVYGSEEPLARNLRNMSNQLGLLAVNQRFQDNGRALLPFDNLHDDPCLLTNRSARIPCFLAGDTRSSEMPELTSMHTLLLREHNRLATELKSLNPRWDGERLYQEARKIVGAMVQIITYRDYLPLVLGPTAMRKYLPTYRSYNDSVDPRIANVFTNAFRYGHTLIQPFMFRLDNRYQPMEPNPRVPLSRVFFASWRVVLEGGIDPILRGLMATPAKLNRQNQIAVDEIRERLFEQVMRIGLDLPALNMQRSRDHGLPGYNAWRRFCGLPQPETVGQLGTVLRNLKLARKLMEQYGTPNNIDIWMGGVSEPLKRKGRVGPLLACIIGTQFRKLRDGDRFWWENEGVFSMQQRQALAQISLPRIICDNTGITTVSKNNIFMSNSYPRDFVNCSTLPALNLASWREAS

myeloperoxidase [2] = molecular target: T1, myeloperoxidase; assay: MPO Chlorination Assay (APF Assay); assay type: biochemical; settings: potency range class, read-out: APF Assay IC50 value

Row | SMILES | IC50 (myeloperoxidase [1]) [nM] | IC50 (myeloperoxidase [2]) [nM]
1 | Nc1cc(C(CCNC2(Cc3ccccc3)CCC(c3ccccc3)CC2)c2ccccc2)c2nn[nH]c2n1 (stereo not drawn) [Example 142, 7-{3-[(1-benzyl-4-phenylcyclohexyl)amino]-1-phenylpropyl}-3H-[1,2,3]triazolo[4,5-b]pyridin-5-amine] | 1000 to 10000 | 101 to 999
2 | Nc1cc(C(CCN[C@H]2CC[C@H](n3cncn3)CC2)c2ccccc2)c2nn[nH]c2n1 (stereo partly drawn) [Example 146, 7-(1-phenyl-3-{[(trans)-4-(1H-1,2,4-triazol-1-yl)cyclohexyl]amino}propyl)-3H-[1,2,3] triazolo[4,5-b] pyridin-5-amine] | 1000 to 10000 | 101 to 999
3 | CC1CC2(NCCC(c3ccccc3)c3cc(N)nc4[nH]nnc34)CCC1(c1ccccc1)CC2 (stereo not drawn) [Example 147, 7-[3-({3-methyl-4-phenylbicyclo[2.2.2]octan-1-yl}amino)-1-phenylpropyl]-3H-[1,2,3]triazolo [4,5-b]pyridin-5-amine] | 1 to 100 | 1 to 100
4 | Nc1cc(C(CCNC2CC3CCC(C2)C3c2ccccc2)c2ccccc2)c2nn[nH]c2n1 (stereo not drawn) [Example 149, 7-[1-phenyl-3-({8-phenylbicyclo[3.2.1]octan-3-yl}amino)propyl]-3H-[1,2,3]triazolo[4,5-b] pyridin-5-amine] | 1000 to 10000 | 101 to 999
5 | Nc1cc(C(CCNC2(C(F)(F)F)CCC(c3ccccc3)CC2)c2ccccc2)c2nn[nH]c2n1 (stereo not drawn) [Example 151, 7-(1-phenyl-3-{[4-phenyl-1-(trifluoromethyl)cyclohexyl]amino}propyl)-3H-[1,2,3]triazolo[4,5-b] pyridin-5-amine] | 1000 to 10000 | 1000 to 10000
6 | Nc1cc([C@H](CCNC23CCC(c4ccccc4)(CC2)C(O)C3)c2ccccc2)c2nn[nH]c2n1 (stereo partly drawn) [Example 154, 4-{[(3R)-3-{5-amino-3H-[1,2,3]triazolo [4,5-b]pyridin-7-yl}-3-phenylpropyl]amino}-1-phenylbicyclo [2.2.2]octan-2-ol] | 1 to 100 | 1 to 100
7 | Nc1cc(C(CCN[C@H]2CC[C@H](c3ccccc3)CC2)c2cccc(F)c2)c2nn[nH]c2n1 (stereo partly drawn) [Example 156, 7-[1-(3-fluorophenyl)-3-{[(trans)-4-phenylcyclohexyl]amino}propyl]-3H-[1,2,3]triazolo [4,5-b]pyridin-5-amine] | 101 to 999 | 1 to 100
8 | N#Cc1ccc(C(CCN[C@H]2CC[C@H](c3ccccc3)CC2)c2cc(N)nc3[nH]nnc23)cc1 (stereo partly drawn) [Example 159, 4-(1-{5-amino-3H-[1,2,3]triazolo [4,5-b]pyridin-7-yl}-3-{[(trans)-4-phenylcyclohexyl]amino}propyl) benzonitrile] | 101 to 999 | 1000 to 10000
9 | Nc1cc(C(CCN[C@H]2CC[C@H](c3ccccc3)CC2)c2cccc(CO)c2)c2nn[nH]c2n1 (stereo partly drawn) [Example 164, [3-(1-{5-amino-3H-[1,2,3]triazolo [4,5-b]pyridin-7-yl}-3-{[(trans)-4-phenylcyclohexyl]amino}propyl)phenyl]methanol] | 1000 to 10000 | 1 to 100
10 | Nc1cc(C(CCN[C@H]2CC[C@H](c3ccccc3)CC2)c2cccc(S(N)(=O)=O)c2)c2nn[nH]c2n1 (stereo partly drawn) [Example 165, 3-(1-{5-amino-3H-[1,2,3]triazolo [4,5-b]pyridin-7-yl}-3-{[(trans)-4-phenylcyclohexyl]amino}propyl) benzene-1-sulfonamide] | 101 to 999 | 101 to 999
11 | Nc1cc(C(CCN[C@H]2CC[C@H](c3ccccc3)CC2)c2cccc(OC(F)F)c2)c2nn[nH]c2n1 (stereo partly drawn) [Example 166, 7-{1-[3-(difluoromethoxy)phenyl]-3-{[(trans)-4-phenylcyclohexyl]amino}propyl}-3H-[1,2,3]triazolo[4,5-b]pyridin-5-amine] | 101 to 999 | 1 to 100
12 | NCc1cccc(C(CCNC23CCC(c4ccccc4)(CC2)CC3)c2cc(N)nc3[nH]nnc23)c1 (stereo not drawn) [Example 172, 7-(1-(3-(aminomethyl)phenyl)-3-((4-phenylbicyclo[2.2.2]octan-1-yl)amino)propyl)-3H-[1,2,3]triazolo[4,5-b]pyridin-5-amine] | 101 to 999 | 1 to 100

Other lines, results leading:

Row | IC50 (myeloperoxidase [1]) [nM] | IC50 (myeloperoxidase [2]) [nM] | SMILES
13 | 1000 to 10000 | 101 to 999 | Nc1cc(C(CCNC2(c3ccccc3)CCC(c3ccccc3)CC2)c2ccccc2)c2nn[nH]c2n1 (stereo not drawn) [Example 144, 7-{3-[(1,4-diphenylcyclohexyl)amino]-1-phenylpropyl}-3H-[1,2,3]triazolo [4,5-b]pyridin-5-amine]
14 | 1 to 100 | 1 to 100 | Nc1cc(C(CCNC23CCC(c4ccccc4)(CC2)C(O)C3)c2ccccc2)c2nn[nH]c2n1 (stereo not drawn) [Example 145, 4-[(3-{5-amino-3H-[1,2,3]triazolo[4,5-b]pyridin-7-yl}-3-phenylpropyl)amino]-1-phenylbicyclo [2.2.2]octan-2-ol]
15 | 1 to 100 | 1 to 100 | COC1CC2(NCCC(c3ccccc3)c3cc(N)nc4[nH]nnc34)CCC1(c1ccccc1)CC2 (stereo not drawn) [Example 148, 7-[3-({3-methoxy-4-phenylbicyclo [2.2.2]octan-1-yl}amino)-1-phenylpropyl]-3H-[1,2,3]triazolo[4,5-b]pyridin-5-amine]
16 | 101 to 999 | 1 to 100 | Nc1cc(C(CCNC2CC[C@H](c3ccccc3)[C@@H](O)C2)c2ccccc2)c2nn[nH]c2n1 (stereo partly drawn) [Example 150, (1S,2R)-5-[(3-{5-amino-3H-[1,2,3]triazolo[4,5-b]pyridin-7-yl}-3-phenylpropyl)amino]-2-phenylcyclohexan-1-ol]
17 | 1 to 100 | 1 to 100 | Nc1cc(C(CCNC23CCC(c4ccccc4)(CC2)CC3O)c2ccccc2)c2nn[nH]c2n1 (stereo not drawn) [Example 152, 1-[(3-{5-amino-3H-[1,2,3]triazolo[4,5-b]pyridin-7-yl}-3-phenylpropyl)amino]-4-phenylbicyclo [2.2.2]octan-2-ol]
18 | 1 to 100 | 1 to 100 | COC1CC2(c3ccccc3)CCC1(NCC[C@H](c1ccccc1)c1cc(N)nc3[nH]nnc13)CC2 (stereo partly drawn) [Example 153, 7-[(1R)-3-({2-methoxy-4-phenylbicyclo[2.2.2]octan-1-yl}amino)-1-phenylpropyl]-3H-[1,2,3]triazolo[4,5-b]pyridin-5-amine]
19 | 101 to 999 | 1 to 100 | N#Cc1cccc(C(CCNC2CCC(c3ccccc3)CC2)c2cc(N)nc3[nH]nnc23)c1 (stereo not drawn) [Example 155, 3-(1-{5-amino-3H-[1,2,3]triazolo [4,5-b]pyridin-7-yl}-3-[(4-phenylcyclohexyl)amino]propyl)benzonitrile]
20 | 101 to 999 | 1 to 100 | Nc1cc(C(CCN[C@H]2CC[C@H](c3ccccc3)CC2)c2ccccc2F)c2nn[nH]c2n1 (stereo partly drawn) [Example 157, 7-[1-(2-fluorophenyl)-3-{[(trans)-4-phenylcyclohexyl]amino}propyl]-3H-[1,2,3]triazolo [4,5-b]pyridin-5-amine]
21 | 101 to 999 | 1 to 100 | COc1cccc(C(CCN[C@H]2CC[C@H](c3ccccc3)CC2)c2cc(N)nc3[nH]nnc23)c1 (stereo partly drawn) [Example 158, 7-[1-(3-methoxyphenyl)-3-{[(trans)-4-phenylcyclohexyl]amino}propyl]-3H-[1,2,3]triazolo [4,5-b]pyridin-5-amine]
22 | 101 to 999 | 1000 to 10000 | NCc1ccc(C(CCN[C@H]2CC[C@H](c3ccccc3)CC2)c2cc(N)nc3[nH]nnc23)cc1 (stereo partly drawn) [Example 160, 7-{1-[4-(aminomethyl)phenyl]-3-{[(trans)-4-phenylcyclohexyl]amino}propyl}-3H-[1,2,3]triazolo[4,5-b]pyridin-5-amine]
23 | 1000 to 10000 | 101 to 999 | N#Cc1ccccc1C(CCN[C@H]1CC[C@H](c2ccccc2)CC1)c1cc(N)nc2[nH]nnc12 (stereo partly drawn) [Example 161, 2-(1-{5-amino-3H-[1,2,3]triazolo [4,5-b]pyridin-7-yl}-3-{[(trans)-4-phenylcyclohexyl]amino}propyl) benzonitrile]
24 | 101 to 999 | 1 to 100 | Nc1cc(C(CCN[C@H]2CC[C@H](c3ccccc3)CC2)c2cccc(Cl)c2)c2nn[nH]c2n1 (stereo partly drawn) [Example 162, 7-[1-(3-chlorophenyl)-3-{[(trans)-4-phenylcyclohexyl]amino}propyl]-3H-[1,2,3]triazolo [4,5-b]pyridin-5-amine]
25 | 1000 to 10000 | 1 to 100 | Cc1ccc(F)c(C(CCN[C@H]2CC[C@H](c3ccccc3)CC2)c2cc(N)nc3[nH]nnc23)c1 (stereo partly drawn) [Example 168, 7-[1-(2-fluoro-5-methylphenyl)-3-{[(trans)-4-phenylcyclohexyl]amino}propyl]-3H-[1,2,3]triazolo [4,5-b]pyridin-5-amine]
26 | 1 to 100 | 1 to 100 | N#Cc1cccc(C(CCNC23CCC(c4ccccc4)(CC2)CC3)c2cc(N)nc3[nH]nnc23)c1 (stereo not drawn) [Example 171, 7-(1-(3-cyanophenyl)-3-((4-phenylbicyclo[2.2.2]octan-1-yl)amino)propyl)-3H-[1,2,3]triazolo[4,5-b]pyridin-5-amine]
27 | 101 to 999 | 101 to 999 | COc1ccc(CNCCC(c2ccccc2)c2cc(N)nc3[nH]nnc23)cc1 (stereo not drawn) [Example 175, 7-(3-{[(4-methoxyphenyl)methyl]amino}-1-phenylpropyl)-3H-[1,2,3]triazolo [4,5-b]pyridin-5-amine]
